Test [1] has as its target recombinant human kappa opioid receptor (κ) (Homo sapiens (Human), UniProt P41145). The test is described as follows: κ-opioid receptor radioligand dose displacement binding assay ([3H]-U69,593). The following applies: mean ± SEM, read-out: Binding Affinity Opioid Receptor Ki (nM) [mean ± SEM] κ. The protocol: (§1) Membranes from HEK-293 cells, CHO or U-2 OS cells expressing the recombinant human kappa opioid receptor (κ) were prepared by lysing cells in ice cold hypotonic buffer (2.5 mM MgCl2, 50 mM HEPES, pH 7.4) (10 mL/10 cm dish) followed by homogenization with a tissue grinder/Teflon pestle. Membranes were collected by centrifugation at 30,000×g for 15 min at 4° C. and pellets were resuspended in hypotonic buffer to a final concentration of 1-3 mg/mL. Protein concentrations were determined using the BioRad protein assay reagent with bovine serum albumen as standard. Aliquots of κ receptor membranes were stored at −80° C.
Radioligand dose displacement assays used 0.4 nM [^3H]-U69,593 (GE Healthcare, Piscataway, N.J.; 40 Ci/mmole) with 15 μg membrane protein (recombinant κ opioid receptor expressed in HEK 293 cells; in-house prep) in a final volume of 200 μl binding buffer (5% DMSO, 50 mM Trizma base, pH 7.4). Non-specific binding was determined in the presence of 10 μM unlabeled naloxone or U69,593. All reactions were performed in 96-well polypropylene plates for 1 hour at a temperature of about 25° C. Binding reactions were terminated by rapid filtration onto 96-well Unifilter GF/C filter plates (Perkin Elmer, Shelton, Conn.) presoaked in 0.5% polyethylenimine (Sigma). Harvesting was performed using a 96-well tissue harvester (Perkin Elmer, Shelton, Conn.) followed by five filtration washes with 200 μl ice-cold binding buffer. Filter plates were subsequently dried at 50° C. for 1-2 hours. Fifty μl/well scintillation cocktail (Perkin Elmer, Shelton, Conn.) was added and plates were counted in a Packard Top-Count for 1 min/well.
(§2) The following tables provide results on the efficacy of binding and activity response of exemplified Compounds of the Invention at the μ- and κ-opioid receptors. In TABLE 3, binding affinity of certain Compounds of the Invention to the μ- and κ-opioid receptors was determined as described above. In TABLE 4, activity response of certain Compounds of the Invention to the μ- and κ-opioid receptors was determined as described above for functional assays using HEK-293 cells. In TABLE 5, activity response of certain Compounds of the Invention to the μ- and κ-opioid receptors was determined as described above using U-2 OS cells.

In test [2] the target is T1, μ-opioid receptors (Homo sapiens (Human), UniProt P35372). The test is described as follows: μ-opioid receptor [35S]GTPγS functional assay, HEK-293 cells. The format is biochemical. The following applies: μ GTP; for EC50: read-out: Activity Response μ EC50 (nM) [mean ± SEM]; for Emax: relative to DAMGO, read-out: Activity Response μ Emax (%). The protocol:
[^35S]GTPγS functional assays were conducted using freshly thawed μ-receptor membranes prepared from a cell line expressing recombinant μ opioid receptor in a HEK-293, CHO or U-2 OS cell background or purchased from a commercial source (Perkin Elmer, Shelton, Conn.; or DiscovRx, Fremont, Calif.). Assay reactions were prepared by sequentially adding the following reagents to binding buffer (100 mM NaCl, 10 mM MgCl2, 20 mM HEPES, pH 7.4) on ice (final concentrations indicated): membrane protein (0.026 mg/mL), saponin ([…]), GDP ([…]) and [^35S]GTPγS (0.20 nM; Perkin Elmer, Shelton, Conn.). The prepared membrane solution (190 μl/well) was transferred to 96-shallow well polypropylene plates containing 10 μl of 20× concentrated stock solutions of the agonist [D-Ala^2, N-methyl-Phe^4 Gly-ol^5]-enkephalin (DAMGO) prepared in dimethyl sulfoxide (DMSO). Plates were incubated for 30 min at about 25° C. with shaking. Reactions were terminated by rapid filtration onto 96-well Unifilter GF/B filter plates (Perkin Elmer, Shelton, Conn.) using a 96-well tissue harvester (Perkin Elmer, Shelton, Conn.) followed by three filtration washes with 200 μl of ice-cold wash buffer (10 mM NaH2PO4, 10 mM Na2HPO4, pH 7.4). Filter plates were subsequently dried at 50° C. for 2-3 hours. BetaScint scintillation cocktail (Perkin Elmer, Shelton, Conn.) was added (50 μl/well) and plates were counted using a Packard Top-Count for 1 min/well. Data were analyzed using the sigmoidal dose-response curve fitting functions in GraphPad PRISM v. 3.0, or an in-house function for non-linear, sigmoidal dose-response curve-fitting.
μ GTP EC50 is the concentration of a compound providing 50% of the maximal response for the compound at a μ-opioid receptor.
μ GTP Emax (%) is the maximal effect elicited by a compound relative to the effect elicited by DAMGO, a standard μ agonist. Generally, the μ GTP Emax (%) value measures the efficacy of a compound to treat or prevent pain or other Conditions.
as §2

Test [3] addresses T2, κ opioid receptor (Homo sapiens (Human), UniProt P41145). The test is described as follows: κ-opioid receptor [35S]GTPγS functional assay, U-2 OS cells. The format is biochemical. The following applies: κ GTP; for EC50: read-out: Activity Response κ EC50 (nM) [mean ± SEM]; for Emax: relative to U69,593, read-out: Activity Response κ Emax (%). For orientation: GTPγS is a poorly hydrolysed GTP analogue; its binding reports G protein activation.

Test [4] addresses T2, κ opioid receptor. Description: κ-opioid receptor [35S]GTPγS functional assay, HEK-293 cells. It is filed as biochemical. The conditions noted are these: κ GTP; for EC50: read-out: Activity Response κ EC50 (nM) [mean ± SEM]; for Emax: relative to U69,593, read-out: Activity Response κ Emax (%). The protocol: as §1
Functional [^35S]GTPγS binding assays were conducted as follows. κ opioid receptor membrane solution was prepared by sequentially adding final concentrations of 0.026 μg/μl κ membrane protein (in-house), 10 μg/mL saponin, 3 μM GDP and 0.20 nM [^35S]GTPγS to binding buffer (100 mM NaCl, 10 mM MgCl2, 20 mM HEPES, pH 7.4) on ice. The prepared membrane solution (190 μl/well) was transferred to 96-shallow well polypropylene plates containing 10 μl of 20× concentrated stock solutions of agonist prepared in DMSO. Plates were incubated for 30 min at a temperature of about 25° C. with shaking. Reactions were terminated by rapid filtration onto 96-well Unifilter GF/B filter plates (Perkin Elmer, Shelton, Conn.) using a 96-well tissue harvester (Packard) and followed by three filtration washes with 200 μl ice-cold binding buffer (10 mM NaH2PO4, 10 mM Na2HPO4, pH 7.4). Filter plates were subsequently dried at 50° C. for 2-3 hours. Fifty μl/well scintillation cocktail (Perkin Elmer, Shelton, Conn.) was added and plates were counted in a Packard Top-Count for 1 min/well.
κ GTP EC50 is the concentration of a compound providing 50% of the maximal response for the compound at a κ receptor.
κ GTP Emax (%) is the maximal effect elicited by a compound relative to the effect elicited by U69,593.
In TABLE 3, binding affinity of certain Compounds of the Invention to the μ- and κ-opioid receptors was determined as described above. In TABLE 4, activity response of certain Compounds of the Invention to the μ- and κ-opioid receptors was determined as described above for functional assays using HEK-293 cells. In TABLE 5, activity response of certain Compounds of the Invention to the μ- and κ-opioid receptors was determined as described above using U-2 OS cells.

The target of test [5] is T1, μ-opioid receptors. Description: μ-opioid receptor [35S]GTPγS functional assay, U-2 OS cells. The format is biochemical. The conditions noted are these: μ GTP; for EC50: read-out: Activity Response μ EC50 (nM) [mean ± SEM]; for Emax: relative to DAMGO, read-out: Activity Response μ Emax (%).

For `COc1ccc2c(c1)[C@]13CCN(CC4CC4)[C@H](C2)[C@]1(O)CC(CC(=O)O)(CC(=O)O)C(=O)C3` [Compound 10, 2,2′-((4bR,8aS,9R)-11-(cyclopropylmethyl)-8a-hydroxy-3-methoxy-6-oxo-6,7,8,8a,9,10-hexahydro-5H-9,4b-(epiminoethano)phenanthrene-7,7-diyl)diacetic acid], in test [1], the Ki (commonly the equilibrium dissociation constant of an inhibitor or competing ligand from its target) was greater than 20000 nM. For the same compound, at μ-opioid receptors [2], the EC50 – broadly, the concentration that produces a half-maximal response – stood at 14700 ± 1530 nM and the Emax (usually the maximal effect, on the per cent scale that the assay sets) is 16 ± 2.65%.
In the case of `O=C(O)CC1(CC(=O)O)C[C@@]2(O)[C@H]3Cc4ccc(O)cc4[C@@]2(CCN3CC2CC2)CC1=O` [Compound 12, 2,2′-((4bR,8aS,9R)-11-(cyclopropylmethyl)-3,8a-dihydroxy-6-oxo-6,7,8,8a,9,10-hexahydro-5H-9,4b-(epiminoethano)phenanthrene-7,7-diyl)diacetic acid], the inhibition constant Ki in test [1] was 3410 ± 538 nM. At μ-opioid receptors [2], the EC50 was greater than 200000 nM.
In the case of `COc1ccc2c(c1)[C@]13CCN(CC4CC4)[C@H](C2)[C@]1(O)C[C@H](CC(=O)N[C@@H](C)C(=O)O)C(=O)C3` [Compound 13, (S)-2-(2-((4bR,7R,8aS,9R)-11-(cyclopropylmethyl)-8a-hydroxy-3-methoxy-6-oxo-6,7,8,8a,9,10-hexahydro-5H-9,4b-(epiminoethano)phenanthren-7-yl)acetamido)propanoic acid], the Ki in test [1] is greater than 20000 nM. At μ-opioid receptors [2], the EC50 was found to be 4600 ± 471 nM and the Emax stood at 66 ± 2.65%.
`CCS(=O)(=O)N[C@H]1C[C@@]2(O)[C@H]3Cc4ccc(O)cc4[C@@]2(CCN3CC2CC2)CC1=O` [Compound 42, N-((4bR,7S,8aS,9R)-11-(cyclopropylmethyl)-3,8a-dihydroxy-6-oxo-6,7,8,8a,9,10-hexahydro-5H-9,4b-(epiminoethano)phenanthren-7-yl)ethanesulfonamide]: on μ-opioid receptors [2], the EC50 was greater than 200000 nM and the Emax stood at 5.5%.
Taken in the same sequence, the figures for `O=C1C[C@]23CCN(CC4CC4)[C@H](Cc4ccc(O)cc42)[C@]3(O)C[C@@H]1NS(=O)(=O)c1ccccc1` [Compound 43, N-((4bR,7S,8aS,9R)-11-(cyclopropylmethyl)-3,8a-dihydroxy-6-oxo-6,7,8,8a,9,10-hexahydro-5H-9,4b-(epiminoethano)phenanthren-7-yl)benzenesulfonamide] were greater than 200000 nM and 0%.
With `O=C1C[C@]23CCN(CC4CC4)[C@H](Cc4ccc(O)cc42)[C@]3(O)C[C@@H]1CCO` [Compound 54, (4bR,7S,8aS,9R)-11-(cyclopropylmethyl)-3,8a-dihydroxy-7-(2-hydroxyethyl)-8,8a,9,10-tetrahydro-5H-9,4b-(epiminoethano)phenanthren-6(7H)-one], the EC50 on κ opioid receptor [3] stood at 4.82 ± 0.71 nM; on κ opioid receptor [4], 5.02 ± 0.14 nM; at μ-opioid receptors [2], 14.2 ± 3.39 nM; at μ-opioid receptors [5] it was 1.81 ± 0.57 nM. Further, the Emax at κ opioid receptor [3] came out at 88.2 ± 2.53%; at κ opioid receptor [4], 34.3 ± 0.67%; at μ-opioid receptors [2], 25 ± 2.04%; on μ-opioid receptors [5], 26.3 ± 2.33%.
In the case of `CC(C)CC[C@H]1C[C@@]2(O)[C@H]3Cc4ccc(O)cc4[C@@]2(CCN3CC2CC2)CC1=O` [Compound 64, (4bR,7S,8aS,9R)-11-(cyclopropylmethyl)-3,8a-dihydroxy-7-isopentyl-8,8a,9,10-tetrahydro-5H-9,4b-(epiminoethano)phenanthren-6(7H)-one], the EC50 was 4.71 ± 0.12 nM on κ opioid receptor [3], 4.3 ± 1.55 nM at κ opioid receptor [4], greater than 200000 nM at μ-opioid receptors [2] and greater than 200000 nM on μ-opioid receptors [5]. Further, the Emax at κ opioid receptor [3] worked out at 87.3 ± 2.6%; at κ opioid receptor [4] it was 33 ± 1.73%; on μ-opioid receptors [2], 1%; on μ-opioid receptors [5], 7.5%.
With `CN1CC[C@]23CC(=O)[C@@H](CC(=O)N4CCC(O)CC4)C[C@@]2(O)[C@H]1Cc1ccc(O)cc13` [Compound 81, (4bR,7R,8aS,9R)-3,8a-dihydroxy-7-(2-(4-hydroxypiperidin-1-yl)-2-oxoethyl)-11-methyl-8,8a,9,10-tetrahydro-5H-9,4b-(epiminoethano)phenanthren-6(7H)-one], on κ opioid receptor [3], the EC50 was determined as 6510 ± 1190 nM and the Emax is 34 ± 2.65%. For the same compound, on μ-opioid receptors [5], the EC50 stood at 1000 ± 276 nM and the Emax was 84.3 ± 3.84%.
In the case of `CC(C)CNC(=O)C[C@H]1C[C@@]2(O)[C@H]3Cc4ccc(O)cc4[C@@]2(CCN3C)CC1=O` [Compound 82, 2-((4bR,7R,8aS,9R)-3,8a-dihydroxy-11-methyl-6-oxo-6,7,8,8a,9,10-hexahydro-5H-9,4b-(epiminoethano)phenanthren-7-yl)-N-isobutylacetamide], at μ-opioid receptors [2], the 50% effective concentration (EC50) came out at 2330 ± 200 nM and the Emax was 67.8 ± 4.01%.
For `CN1CC[C@]23CC(=O)[C@@H](CC(=O)NCc4ccccc4)C[C@@]2(O)[C@H]1Cc1ccc(O)cc13` [Compound 83, N-benzyl-2-((4bR,7R,8aS,9R)-3,8a-dihydroxy-11-methyl-6-oxo-6,7,8,8a,9,10-hexahydro-5H-9,4b-(epiminoethano)phenanthren-7-yl)acetamide], in that order: 456 ± 36.7 nM and 75 ± 5.51%.
Consider `CN1CC[C@]23CC(=O)[C@@H](CC(=O)NCC4CC4)C[C@@]2(O)[C@H]1Cc1ccc(O)cc13` [Compound 84, N-(cyclopropylmethyl)-2-((4bR,7R,8aS,9R)-3,8a-dihydroxy-11-methyl-6-oxo-6,7,8,8a,9,10-hexahydro-5H-9,4b-(epiminoethano)phenanthren-7-yl)acetamide], for which, at μ-opioid receptors [2], the concentration for a half-maximal effect (EC50) stood at 1260 ± 301 nM and the Emax came to 57.7 ± 2.73%.

For the origin of these results see US9388162B2, “Substituted morphinans and the use thereof” (Purdue Pharma L.P., priority 2012, dated 2016).
